Where two headings read alike, the source gives them in different places.

Data on 9 compounds can be found in paper PMC9202104 (BMC Biology, 2022).

Series [1] in a line: Cytotoxicity, Cell Counting Kit-8, Vero E6 cells. As to conditions: African green monkey. It is filed as cell-based. The protocol: (§1) Briefly, compounds at 2-fold serial dilutions were added to the respective cells (2.0×10^4/well) pre-seeded in 96-well plates. The cells were cultured at 37°C in the presence of 5% CO2 for 3 days, […] incubated with CCK8 solution, followed by measurement of absorbance at 450 nm (A450 value), using a microplate reader (Infinite F200PRO, Tecan, Morrisville, NC, USA). CC50 of compounds was calculated using the CalcuSyn program.
Background: Formazan colour is commonly taken as a measure of viable cells.

In series [2] the test system is ZIKV human strain PAN2016 (2016/Panama). Kind of series: Plaque assay, inhibition of ZIKV infection (strain PAN2016). The conditions noted are these: for SI (CC50/IC50): CC50 Vero E6 / IC50 ZIKV PAN2016. The protocol:
(§2) After removal of the unbound compounds by centrifugation (after addition of 3% PEG-6000), ZIKV was incubated with Vero E6 cells in 24-well plates at 37°C for 1 h. The cells were then washed with PBS, overlaid with DMEM containing 1% carboxymethyl cellulose and 2% FBS, and cultured at 37°C for 4–5 days, followed by being stained with 0.5% crystal violet. […] Plaques in each well were calculated, and IC50 of compounds for each compound was calculated using the CalcuSyn computer program.

For another series, the system named is ZIKV infection. The conditions noted are these: read-out: IC50 against ZIKV infection (reported); cited from earlier work.
Series [3] relates to 8 human ZIKV strains (PAN2016, R116265, PAN2015, FLR, R103451, PRVABC59, PLCal_ZV, IbH 30656). Put plainly: microbe, parasite or virus in culture. It is filed as cell-based. As to conditions: Zika virus, read-out: Average IC50 (human strains). The protocol: as §2
A further series relates to Vero E6 cells. Put plainly: Cytotoxicity, Cell Counting Kit-8, Vero E6 cells. The class given is cell-based. The conditions noted are these: African green monkey, 3 days. The protocol: as §1
Series [4] has as its system ZIKV human strain R116265. Put plainly: Plaque assay, inhibition of ZIKV infection (strain R116265). The class given is cell-based. As to conditions: Zika virus, Vero C1008, Vero E6 cells. The protocol: as §2
A further series deals with ZIKV human strain FLR. Kind of series: Plaque assay, inhibition of ZIKV infection (strain FLR). The class given is cell-based. The conditions noted are these: Zika virus, Vero C1008; plaque assay, Vero E6 cells, human strain; read-out: IC50 FLR. As for the experimental part: as §2
In series [5] the test system is ZIKV human strain PLCal_ZV. Put plainly: Plaque assay, inhibition of ZIKV infection (strain PLCal_ZV). The class given is cell-based. As to conditions: Zika virus, Vero C1008; plaque assay, Vero E6 cells, human strain; read-out: IC50 PLCal_ZV. As for the experimental part:
as §2

Series [6] deals with ZIKV human strain PAN2015. Put plainly: Plaque assay, inhibition of ZIKV infection (strain PAN2015). The class given is cell-based. The conditions noted are these: Zika virus, Vero C1008, Vero E6 cells. The protocol:
as §2

Series [7] has as its system ZIKV rhesus macaque strain MR 766. Kind of series: Plaque assay, inhibition of ZIKV infection (strain MR 766). As to conditions: Zika virus, Vero C1008; plaque assay, Vero E6 cells, rhesus strain; read-out: IC50 MR 766. The class given is cell-based. As for the experimental part:
as §2

The subject of series [8] is ZIKV human strain R103451. Put plainly: Plaque assay, inhibition of ZIKV infection (strain R103451). The conditions noted are these: Zika virus, Vero C1008; plaque assay, Vero E6 cells, human strain; read-out: IC50 R103451. The class given is cell-based. As for the experimental part:
as §2

Series [9] deals with ZIKV human strain IbH 30656. Put plainly: Plaque assay, inhibition of ZIKV infection (strain IbH 30656). The class given is cell-based. As to conditions: Zika virus, Vero C1008; plaque assay, Vero E6 cells, human strain; read-out: IC50 IbH 30656. The protocol:
as §2

Series [10] deals with ZIKV human strain PRVABC59. Put plainly: Plaque assay, inhibition of ZIKV infection (strain PRVABC59). The conditions noted are these: Zika virus, Vero C1008; plaque assay, Vero E6 cells, human strain; read-out: IC50 PRVABC59. The class given is cell-based. The protocol: as §2
Series [11] has as its system ZIKV mosquito strain MEX 2-81. Kind of series: Plaque assay, inhibition of ZIKV infection (strain MEX 2-81). The class given is cell-based. As to conditions: Zika virus, Vero C1008; plaque assay, Vero E6 cells, mosquito strain; read-out: IC50 MEX 2-81. The protocol:
as §2

Setting [12] is: Zika virus, Vero C1008, in Homo sapiens, read-out: IC50 against infection of ZIKV PAN2016, plaque assay, Vero E6 cells.
[13] abbreviates: read-out: IC50 against infection of ZIKV PAN2016, plaque assay, Vero E6 cells.

Usually CC50 stands for the concentration giving 50% cytotoxicity. By IC50 is commonly meant the concentration needed to halve the response being measured. Regarding `Cc1cc2c(c(O)c1-c1c(C)cc3c(c1O)C(C=C1C(=O)NC(=O)NC1=O)C(=O)C(O)=C3C(C)C)C(C=C1C(=O)NC(=O)NC1=O)C(=O)C(O)=C2C(C)C` (centres unmarked) [ST004335], in [1] (Vero E6 cells, CCK8, 3 days, read-out: CC50 Vero E6), the CC50 at 3 days came out at 73.9 ± 1.68 µM. Also, the “SI (CC50/IC50)” value in [2] was 2.7. The half-maximal inhibitory concentration (IC50) in [2] (setting [12]) is 27.4 ± 2.5 µM.
For the compound `Oc1cccc(-c2c3nc(c(-c4cccc(O)c4)c4ccc([nH]4)c(-c4cccc(O)c4)c4nc(c(-c5cccc(O)c5)c5ccc2[nH]5)CC4)C=C3)c1` [Temoporfin], the IC50 with ZIKV infection was 1.1 µM.
For `CC(=O)Oc1ccccc1C(=O)Nc1ncc([N+](=O)[O-])s1` [Nitazoxanide], the IC50 in the series on ZIKV infection was 15.9 µM.
As to `Cc1cc2nc[nH]c2c(/N=C/c2c(O)c(O)c(C(C)C)c3cc(C)c(-c4c(C)cc5c(C(C)C)c(O)c(O)c(/C=N/c6c(C)c(C)cc7nc[nH]c67)c5c4O)c(O)c23)c1C` [ST092971], the IC50 in series [3] was found to be 6.6 µM; in [4] it was 8 µM; in series [2] (setting [12]), 5 µM; in [2] (setting [13]) it was 4.98 ± 0.01 µM; in the series on ZIKV human strain FLR it was 6.9 µM; in series [5], 6.7 µM. The IC50 is 5 µM in series [6]; 5.2 µM in series [7]; 6.6 µM in series [8]; 5.2 µM in [9]; 9.1 µM in series [10]; 13.5 µM in series [11]. This compound yielded a CC50 in the series with Vero E6 cells of 72.1 ± 1.91 µM. In addition, the CC50 at 3 days in series [1] (CC50 Vero E6) was 72.1 µM. The “SI (CC50/IC50)” value in [2] stood at 14.48.
Regarding `Cc1cc2c(C(C)C)c(O)c(O)c3c2c(c1-c1c(C)cc2c(C(C)C)c(O)c(O)c4c2c1OC4N)OC3N` (centres unmarked) [ST069299], the IC50 in series [3] worked out at 3 µM; in [4], 2.6 µM; in [2] (setting [12]), 2.3 µM; in series [2] (setting [13]), 2.34 ± 0.06 µM; in the series with ZIKV human strain FLR it was 3.3 µM; in series [5] it was 4 µM. In addition, the IC50 in series [6] amounted to 2.3 µM; in series [7], 4.9 µM; in [8], 3.9 µM; in series [9], 2.5 µM; in [10], 3.3 µM; in [11] it was 3.9 µM. In addition, in the series on Vero E6 cells, the CC50 is 25.9 ± 2.7 µM. It took 25.9 µM to reach half-maximal cytotoxicity in series [1] (CC50 Vero E6) (CC50 at 3 days).
Regarding `Cc1cc2c(c(O)c1-c1c(C)cc3c(c1O)/C(=C/NCc1cccnc1)C(=O)C(O)=C3C(C)C)/C(=C/NCc1cccnc1)C(=O)C(O)=C2C(C)C` [ST005135], in [1] (CC50 Vero E6), the CC50 at 3 days was found to be 104 ± 2.2 µM. The “SI (CC50/IC50)” value in series [2] came to 2.97. Moreover, the IC50 in series [2] (setting [12]) worked out at 35 ± 2.86 µM.
Turning to `CC(C)OC(=O)[C@H](C)N[P@](=O)(OC[C@H]1O[C@@H](n2ccc(=O)[nH]c2=O)[C@](C)(F)[C@@H]1O)Oc1ccccc1` [Sofosbuvir], the IC50 in the series on ZIKV infection is 9.6 µM.
`Cc1cc2c(C(C)C)c(O)c(O)c(/C=N/NC(=O)C(C)C)c2c(O)c1-c1c(C)cc2c(C(C)C)c(O)c(O)c(/C=N/NC(=O)C(C)C)c2c1O` [ST086273]: the IC50 was 5.5 µM in series [3]; 7.9 µM in [4]; 4.8 µM in [2] (setting [12]); 4.93 ± 0.7 µM in [2] (setting [13]); 4.2 µM in the series with ZIKV human strain FLR; 5.9 µM in series [5]. For the same compound, the IC50 amounted to 5 µM in [6]; 5.5 µM in series [7]; 7 µM in series [8]; 5.4 µM in series [9]; 4 µM in series [10]; 2.8 µM in series [11]. In the series on Vero E6 cells, this compound had a CC50 of 50.5 ± 3.36 µM. Further, in series [1] (CC50 Vero E6), the midpoint of cytotoxicity, the CC50 at 3 days, lay at 50.5 µM. Further, the “SI (CC50/IC50)” value in series [2] came out at 10.23.
Take `Cc1cc2c(c(O)c1-c1c(C)cc3c(c1O)/C(=C/NCCO)C(=O)C(O)=C3C(C)C)/C(=C/NCCO)C(=O)C(O)=C2C(C)C` [ST004331]: in series [1] (CC50 Vero E6), the CC50 at 3 days turned out to be 42.3 ± 1.17 µM. The “SI (CC50/IC50)” value in [2] is 1.20. Besides, the IC50 in series [2] (setting [12]) was determined as 35.02 ± 0.35 µM.
